Source: patent US9682940B2, “Indazole derivatives useful as CB-1 inverse agonists” (Janssen Pharmaceutica NV, priority 2015, dated 2017)

How the values were obtained:
[1] = biological target: Human CB1R (Cannabanoid receptor 1) (Homo sapiens (Human), UniProt P21554); experiment: CB-1 in vitro cAMP (HTRF) assay in HEK-293 cells; type: cell-based; details: HEK-293 cells stably transfected with human CB1R, 250 nM Forskolin, mean where tested more than once, read-out: CB-1 (HEK_cAMP) EC50
Text: (§1) CB1 and CB2 receptors are Gi-coupled GPCR. Activation of CB1 and CB2 receptors results in a decrease in cAMP production. An inverse agonist of the CB1 or CB2 receptor results in the opposite effect, an increase of cAMP production. The principle of this assay is based on HTRF® technology (Homogeneous Time-Resolved Fluorescence). The method is a competitive immunoassay between native cAMP produced by cells and the cAMP labeled with the fluorophore d2. The tracer binding is quantified by a Mab anti-cAMP labeled with Eu3+TBP-NHS Cryptate (supplied as part of the assay kit). The specific signal (i.e. energy transfer) is inversely proportional to the concentration of cAMP in the standard or sample.
(§2) Human CB1R (Cannabanoid receptor 1) was stably transfected in HEK-293 cells (DiscoveRx, cat: 93-0200C1). Human CB2R (Cannabanoid receptor 2) was stably transfected in HEK-293 cells (DiscoveRx, cat: 93-0201C1). Cell cultures were maintained in media: DMEM (Invitrogen Cat#12430-054) supplemented with 10% HI FBS (Invitrogen Cat#16140-071), 1% L-glutamine (Invitrogen Cat#25030-081), 0.2 mg/ml Hygromycin B (Invitrogen Cat#10687-010), 600 μg/mL G418 (Invitrogen Cat#10131-035), and 1× Penn/Strep (Invitrogen 15140-122). After cell expansion, aliquots were cryo-stored in media containing 5% DMSO (Pierce Cat#20684).
(§3) One day prior to experiments media was warmed to 37° C. and the cryo-stored cells were thawed in a 37° C. water bath. The cells were then added to media (10× volume) and the mixture was centrifugated at 1000 RPM for 5 min. The supernate was removed and the cells were re-suspended in media. A sample of the cell suspension was evaluated on a Cedex XS automated cell counter (Innovatis Systems) to determine viable cells/ml. Additional media was added to the cells to achieve a final cell density of 4E5 cells/mL. The cells were then plated into 384 well PDL white solid bottom plates (Greiner, Cat#781945) at 20 μL per well using a Multidrop (Thermo Scientific). Cells were removed from Row P (location of cAMP standards). Two columns of cells were plated into a clear bottom 384 well PDL coated plate (Greiner, Cat#781944) to view confluence the day of the assay. The cell plates were lidded and stored for 15 minutes in a hood, then transferred to an incubator (37° C., 5% CO2, 95% humidity) overnight.
(§4) DMSO was added to all wells of 384 well V bottom polystyrene plate (Greiner, Cat#781280) except to columns 1 and 13, rows O and P and wells M13-M23 and N13-N23. Test compounds (60 μL, 10 mM) were added to Column 1 and 13 (A1 through N1 and A13 through L13). Test compounds were serially diluted 1/3 by transferring and mixing 20 μl sample with 40 μL DMSO.
(§5) DMSO (40 μL) was added to wells of 384 well V bottom polystyrene plate: O2 through O11, M14 through M23, N14 through N23, and O14 through 023. AM630 (also known as [6-iodo-2-methyl-1-[2-(4-morpholinyl)ethyl]-1H-indol-3-yl](4-methoxyphenyl)-methanone, Cayman Chemical, Cat#10006974) (60 μL, 10 mM) was added to 01; and 1-(2,4-dichlorophenyl)-7-[(4-fluorophenyl)methylene]-4,5,6,7-tetrahydro-N-1-piperidinyl-1H-indazole-3-carboxamide (60 μL, 10 mM) was added to N13. The control was serially diluted 1/3 by transferring and mixing 20 μl sample with 40 μL DMSO. This process resulted 11 doses per control, 10 mM to […].
(§6) Cells plated the day prior to the assay in clear bottom plates were viewed on an inverse microscope to ensure confluency in the range of 60-75%. […]

[2] = biological target: Human CB2R (Cannabanoid receptor 2) (Homo sapiens (Human), UniProt P34972); experiment: CB-2 in vitro cAMP (HTRF) assay in HEK-293 cells; type: cell-based; details: HEK-293 cells stably transfected with human CB2R, 250 nM Forskolin, mean where tested more than once, read-out: CB-2 (HEK_cAMP) EC50
Text: as §1, §2, §3, §4, §5, §6

Chain of Human CB2R (Cannabanoid receptor 2) (P34972 whole entry): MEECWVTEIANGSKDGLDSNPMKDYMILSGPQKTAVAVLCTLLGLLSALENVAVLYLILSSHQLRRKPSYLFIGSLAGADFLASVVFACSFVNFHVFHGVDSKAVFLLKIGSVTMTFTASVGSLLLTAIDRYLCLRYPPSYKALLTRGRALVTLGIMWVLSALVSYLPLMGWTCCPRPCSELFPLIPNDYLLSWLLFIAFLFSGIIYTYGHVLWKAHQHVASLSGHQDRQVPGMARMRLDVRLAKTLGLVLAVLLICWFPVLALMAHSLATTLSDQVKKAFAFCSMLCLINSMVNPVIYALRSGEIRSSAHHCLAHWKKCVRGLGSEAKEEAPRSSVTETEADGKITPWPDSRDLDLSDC
Chain of Human CB1R (Cannabanoid receptor 1) (P21554 whole entry): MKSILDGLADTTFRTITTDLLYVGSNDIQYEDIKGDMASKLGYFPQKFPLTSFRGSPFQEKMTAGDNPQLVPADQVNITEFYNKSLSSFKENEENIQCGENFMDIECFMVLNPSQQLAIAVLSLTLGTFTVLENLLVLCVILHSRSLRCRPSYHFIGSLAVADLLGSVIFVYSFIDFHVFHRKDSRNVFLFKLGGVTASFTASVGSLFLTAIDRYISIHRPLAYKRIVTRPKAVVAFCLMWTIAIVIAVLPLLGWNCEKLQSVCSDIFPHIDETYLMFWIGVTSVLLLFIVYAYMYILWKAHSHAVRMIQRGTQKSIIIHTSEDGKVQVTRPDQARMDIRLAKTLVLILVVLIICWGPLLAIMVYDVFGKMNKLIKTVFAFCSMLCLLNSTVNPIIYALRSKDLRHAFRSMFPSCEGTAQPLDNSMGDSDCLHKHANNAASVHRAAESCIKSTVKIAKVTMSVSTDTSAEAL

EC50 [1]	EC50 [2]	Structure (SMILES)
941 nM	> 10000 nM	O=C(O)c1ccccc1Cn1nc(N2CCN(S(=O)(=O)C(F)(F)F)CC2)c2cc(C(c3ccc(Cl)cc3)c3ccc(Cl)cc3)ccc21 [Compound 45]
40 nM	> 10000 nM	O=S(=O)(N1CCC(c2nn(-c3ccc(C(F)(F)F)cc3)c3ccc(C(c4ccc(Cl)cc4)c4ccc(Cl)cc4)cc23)CC1)C(F)(F)F [Compound 46]
41 nM	> 10000 nM	O=S(=O)(N1CCC(c2nn(-c3cccc(Cl)c3)c3ccc(C(c4ccc(Cl)cc4)c4ccc(Cl)cc4)cc23)CC1)C(F)(F)F [Compound 47]
31 nM	> 10000 nM	O=S(=O)(N1CCC(c2nn(-c3ccccc3Cl)c3ccc(C(c4ccc(Cl)cc4)c4ccc(Cl)cc4)cc23)CC1)C(F)(F)F [Compound 48]
18 nM	> 10000 nM	O=S(=O)(N1CCC(c2nn(-c3ccc(OC(F)(F)F)cc3)c3ccc(C(c4ccc(Cl)cc4)c4ccc(Cl)cc4)cc23)CC1)C(F)(F)F [Compound 49]
59 nM	> 10000 nM	O=S(=O)(N1CCC(c2nn(-c3ccc(F)cc3)c3ccc(C(c4ccc(F)cc4)c4ccc(Cl)cc4)cc23)CC1)C(F)(F)F (stereo not drawn) [Compound 50]
152 nM	> 10000 nM	COC(=O)CC(=O)N1CCC(c2n[nH]c3ccc(C(c4ccc(Cl)cc4)c4ccc(Cl)cc4)cc23)CC1 [Compound 51]
499 nM	> 10000 nM	O=C(O)COCCn1nc(N2CCN(S(=O)(=O)C(F)(F)F)CC2)c2cc(C(c3ccc(Cl)cc3)c3ccc(Cl)cc3)ccc21 [Compound 52]
49 nM	> 10000 nM	O=S(=O)(CC(F)(F)F)N1CCC(c2n[nH]c3ccc(C(c4ccc(Cl)cc4)c4ccc(Cl)cc4)cc23)CC1 [Compound 53]
27 nM	> 10000 nM	O=S(=O)(C1CC1)N1CCC(c2n[nH]c3ccc(C(c4ccc(Cl)cc4)c4ccc(Cl)cc4)cc23)CC1 [Compound 54]
649 nM	> 10000 nM	NC(=O)c1ccccc1Cn1nc(N2CCN(S(=O)(=O)C(F)(F)F)CC2)c2cc(C(c3ccc(Cl)cc3)c3ccc(Cl)cc3)ccc21 [Compound 55]
72 nM	> 10000 nM	O=C(CC(F)(F)F)N1CCC(c2n[nH]c3ccc(C(c4ccc(Cl)cc4)c4ccc(Cl)cc4)cc23)CC1 [Compound 56]
474 nM	> 10000 nM	O=S(=O)(N1CCC(c2nn(-c3cccc(C(F)(F)F)c3)c3ccc(C(c4ccc(Cl)cc4)c4ccc(Cl)cc4)cc23)CC1)C(F)(F)F [Compound 57]
13 nM	> 10000 nM	O=S(=O)(N1CCC(c2nn(-c3ccc(Cl)c(Cl)c3)c3ccc(C(c4ccc(Cl)cc4)c4ccc(Cl)cc4)cc23)CC1)C(F)(F)F [Compound 58]
374 nM	> 10000 nM	O=S(=O)(c1cccc(C(F)(F)F)c1)N1CCC(c2n[nH]c3ccc(C(c4ccc(Cl)cc4)c4ccc(Cl)cc4)cc23)CC1 [Compound 59]
65 nM	> 10000 nM	COC(=O)c1cccc(S(=O)(=O)N2CCC(c3n[nH]c4ccc(C(c5ccc(Cl)cc5)c5ccc(Cl)cc5)cc34)CC2)c1 [Compound 60]
191 nM	> 10000 nM	O=C(O)c1cccc(S(=O)(=O)N2CCC(c3n[nH]c4ccc(C(c5ccc(Cl)cc5)c5ccc(Cl)cc5)cc34)CC2)c1 [Compound 61]

Further lines, the compound ahead of its results:

Structure (SMILES)	EC50 [1]	EC50 [2]
NC(=O)Cn1nc(N2CCN(S(=O)(=O)C(F)(F)F)CC2)c2cc(C(c3ccc(Cl)cc3)c3ccc(Cl)cc3)ccc21 [Compound 19]	84 nM	> 10000 nM
COC(=O)Cn1nc(N2CCN(S(=O)(=O)C(F)(F)F)CC2)c2cc(C(c3ccc(Cl)cc3)c3ccc(Cl)cc3)ccc21 [Compound 20]	165 nM	> 10000 nM
CCOC(=O)CS(=O)(=O)N1CCC(c2n[nH]c3ccc(C(c4ccc(Cl)cc4)c4ccc(Cl)cc4)cc23)CC1 [Compound 21]	170 nM	> 10000 nM
O=C(O)CS(=O)(=O)N1CCC(c2n[nH]c3ccc(C(c4ccc(Cl)cc4)c4ccc(Cl)cc4)cc23)CC1 [Compound 22]	249 nM	> 10000 nM
NS(=O)(=O)N1CCC(c2n[nH]c3ccc(C(c4ccc(Cl)cc4)c4ccc(Cl)cc4)cc23)CC1 [Compound 23]	2150 nM	> 10000 nM
COC(=O)c1ccc(S(=O)(=O)N2CCC(c3n[nH]c4ccc(C(c5ccc(Cl)cc5)c5ccc(Cl)cc5)cc34)CC2)cc1 [Compound 24]	151 nM	> 10000 nM
NC(=O)CS(=O)(=O)N1CCC(c2n[nH]c3ccc(C(c4ccc(Cl)cc4)c4ccc(Cl)cc4)cc23)CC1 [Compound 25]	1230 nM	> 10000 nM
O=S(=O)(N1CCN(c2n[nH]c3ccc(C(c4ccc(Cl)cc4)c4ccc(Cl)cc4)cc23)CC1)C(F)(F)F [Compound 26]	5 nM	> 10000 nM
O=C(O)c1ccc(S(=O)(=O)N2CCC(c3n[nH]c4ccc(C(c5ccc(Cl)cc5)c5ccc(Cl)cc5)cc34)CC2)cc1 [Compound 27]	410 nM	> 10000 nM
NC(=O)c1ccc(S(=O)(=O)N2CCC(c3n[nH]c4ccc(C(c5ccc(Cl)cc5)c5ccc(Cl)cc5)cc34)CC2)cc1 [Compound 28]	134 nM	> 10000 nM
O=S(=O)(N1CCN(c2nn(S(=O)(=O)C(F)(F)F)c3ccc(C(c4ccc(Cl)cc4)c4ccc(Cl)cc4)cc23)CC1)C(F)(F)F [Compound 29]	1490 nM	> 10000 nM
COC(=O)c1ccccc1S(=O)(=O)N1CCC(c2n[nH]c3ccc(C(c4ccc(Cl)cc4)c4ccc(Cl)cc4)cc23)CC1 [Compound 31]	128 nM	2340 nM
O=S(=O)(c1ccc(C(F)(F)F)cc1)N1CCC(c2n[nH]c3ccc(C(c4ccc(Cl)cc4)c4ccc(Cl)cc4)cc23)CC1 [Compound 32]	71 nM	> 10000 nM
O=S(=O)(c1ccccc1C(F)(F)F)N1CCC(c2n[nH]c3ccc(C(c4ccc(Cl)cc4)c4ccc(Cl)cc4)cc23)CC1 [Compound 33]	49 nM	> 10000 nM
O=C(O)c1ccccc1S(=O)(=O)N1CCC(c2n[nH]c3ccc(C(c4ccc(Cl)cc4)c4ccc(Cl)cc4)cc23)CC1 [Compound 34]	6030 nM	7500 nM
O=S(=O)(N1CCC(c2nn(-c3nccs3)c3ccc(C(c4ccc(Cl)cc4)c4ccc(Cl)cc4)cc23)CC1)C(F)(F)F [Compound 37]	8 nM	> 10000 nM
CC(C)(C)OC(=O)N1CCC(c2n[nH]c3ccc(C(c4ccc(Cl)cc4)c4ccc(Cl)cc4)cc23)CC1 [Compound 39]	144 nM	> 10000 nM
NC(=O)c1ccccc1S(=O)(=O)N1CCC(c2n[nH]c3ccc(C(c4ccc(Cl)cc4)c4ccc(Cl)cc4)cc23)CC1 [Compound 40]	297 nM	10200 nM
O=C(O)CC(=O)N1CCC(c2n[nH]c3ccc(C(c4ccc(Cl)cc4)c4ccc(Cl)cc4)cc23)CC1 [Compound 41]	1650 nM	> 10000 nM
O=S(=O)(N1CCN(c2nn(CCO)c3ccc(C(c4ccc(Cl)cc4)c4ccc(Cl)cc4)cc23)CC1)C(F)(F)F [Compound 42]	6 nM	> 10000 nM
NC(=O)CCC(=O)N1CCC(c2n[nH]c3ccc(C(c4ccc(Cl)cc4)c4ccc(Cl)cc4)cc23)CC1 [Compound 43]	169 nM	> 10000 nM
CC(=O)n1nc(N2CCN(S(=O)(=O)C(F)(F)F)CC2)c2cc(C(c3ccc(Cl)cc3)c3ccc(Cl)cc3)ccc21 [Compound 44]	14 nM	> 10000 nM
